The results in this text go back to patent US20120214847A1, “2-[1-PHENYL-5-HYDROXY-4a-SUBSTITUTED-HEXAHYDROCYCLOPENTA[F]INDAZOL-5-YL]ETHYL PHENYL DERIVATIVES AS GLUCOCORTICOID RECEPTOR LIGANDS” (Merck Sharp & Dohme Corp., priority 2009, published 2012).

This test has as its target T1, human GR (Homo sapiens, UniProt P04150).
T1 construct: naturally expresses the human GR; endogenous in cells
T1 sequence (P04150 1-777): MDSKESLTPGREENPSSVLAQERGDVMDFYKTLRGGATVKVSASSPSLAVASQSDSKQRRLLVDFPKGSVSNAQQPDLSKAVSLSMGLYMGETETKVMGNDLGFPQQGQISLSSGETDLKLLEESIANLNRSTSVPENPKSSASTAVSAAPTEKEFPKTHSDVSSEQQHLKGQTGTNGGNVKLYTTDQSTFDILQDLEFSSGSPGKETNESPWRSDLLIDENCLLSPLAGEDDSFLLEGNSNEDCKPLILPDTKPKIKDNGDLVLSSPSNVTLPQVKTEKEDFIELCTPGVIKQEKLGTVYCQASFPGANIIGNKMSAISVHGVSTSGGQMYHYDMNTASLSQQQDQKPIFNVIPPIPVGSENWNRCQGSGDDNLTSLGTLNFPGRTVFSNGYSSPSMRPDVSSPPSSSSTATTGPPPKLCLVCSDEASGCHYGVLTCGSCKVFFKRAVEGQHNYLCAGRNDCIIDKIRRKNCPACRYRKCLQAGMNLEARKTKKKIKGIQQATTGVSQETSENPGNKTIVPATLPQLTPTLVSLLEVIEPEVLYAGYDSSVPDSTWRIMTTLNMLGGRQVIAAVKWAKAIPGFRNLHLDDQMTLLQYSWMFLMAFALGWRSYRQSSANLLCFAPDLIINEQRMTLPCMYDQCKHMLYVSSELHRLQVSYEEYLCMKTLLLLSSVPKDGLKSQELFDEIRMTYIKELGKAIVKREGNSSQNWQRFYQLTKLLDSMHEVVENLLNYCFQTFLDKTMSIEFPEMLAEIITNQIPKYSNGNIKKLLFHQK
Kind of test: Trans-activation modulation of glucocorticoid receptor (GRAMMER), MMTV-LUC reporter in A549 cells. The format is cell-based. The conditions noted are these: for Emax: A549, A549 cells, read-out: Transactivation A549 Cells Grammer Emax (%); for Emax / Transactivation A549 Cells Grammer Emax (%): Emax relative to the activity obtained with 300 nM dexamethasone; for EC50 / Transactivation A549 Cells Grammer Emax (%): A549 cells; for EC50: IP = inflection point, read-out: Transactivation A549 Cells Grammer IP. From the text: Trans-Activation Modulation of Glucocorticoid Receptor (GRAMMER)
This assay assesses the ability of test compounds to control transcription from the MMTV-LUC reporter gene in lung adenocarcinoma A549 cells or HeLa cells, a human […] cell line that naturally expresses the human GR. The assay measures induction of a modified MMTV LTR/promoter linked to the LUC reporter gene.
The routine transient assay consists of plating 7,000-25,000 cells/well of a white, clear-bottom 96-well plate. Alternatively, 384-well plates can be used at a cell concentration of 10,000/well. The media that the cells are plated in is “exponential growth medium” which consists of phenol red-free RPMI1640 containing 10% FBS, 4 mM L-glutamine, 20 mM HEPES, 10 ug/mL human insulin, and 20 ug/mL gentamicin. Incubator conditions are 37° C. and 5% C02. The transfection is done in batch mode. The cells are trypsinized and counted to the right cell number in the proper amount of fresh media. It is then gently mixed with the FuGene6/DNA 25 mix and plated onto the 96 or 384-well plate, all the wells receive 100 uL or 40 uL, respectively, of medium+lipid/DNA complex then incubated 37° C. overnight. The transfection cocktail consists of serum-free OptiMEM, FuGene6 reagent and DNA. The manufacturer's (Roche Biochemical) protocol for cocktail setup is as follows: The lipid to DNA ratio is approximately 2.5:1 and the incubation time is 20 min at room temperature. Sixteen to 24 h after transfection, the cells are treated with dexamethasone to a final concentration of 10 nM as well as the compound of interest, such that final DMSO (vehicle) concentration is equal to or less than 1%. Each plate also contains samples that are treated with 10 nM dexamethasone alone, which is used as the 100% activity control. The cells are exposed to the compounds for 24 h. After 24 h, the cells are lysed by a Promega cell culture lysis buffer for approximately 30 min and then the luciferase activity in the extracts is assayed in the 96-well format luminometer. In 384 well format, Steady-Glo (Promega) or Steady-Lite (PerkinElmer) can be used by adding an equal volume of reagent to the media present in each well. Activity induced by 10 nM dexamethasone alone is set at 100% activity. Antagonist activity is calculated by determining the decrease in dexamethasone-induced activity in response to compound treatment relative to samples that were treated with dexamethasone alone. Results are expressed as % inhibition of 10 nM dexamethasone activity or as fold of 10 nM dexamethasone activity. This transactivation assay can be performed in an agonist and antagonist mode to identify these different activities.
Activity of test compounds is calculated as the Emax relative to the activity obtained with 300 nM dexamethasone. […] The exemplified tissue selective glucocorticoid receptor modulators of the present invention display agonist activity in this assay of greater than 5% and less than 100%, and maximal transactivation activity less then maximal transrepression activity. The action of compounds is also tested in an antagonist mode (Anti-GRAMMER) in which the cells are treated with medium containing an agonist such as 10 nM DEX and the ability of agents to inhibit the activation by an agonist is measured.

For `OC(C[C@]1(O)CCC2=Cc3c(cnn3-c3ccc(F)cc3)C[C@@]21C1CC1)c1ccccn1` (stereo partly drawn) [Example 78, (4aR,5R)-4a-Cyclopropyl-1-(4-fluorophenyl)-5-[2-hydroxy-2-(pyridin-2-yl)ethyl]-1,4,4a,5,6,7-hexahydrocyclopenta[f]indazol-5-ol], the Emax is 13% and the EC50 stood at 66 nM.
On the same counts, the results for `NS(=O)(=O)c1ccccc1CC[C@]1(O)CCC2=Cc3c(cnn3-c3cccnc3)C[C@@]21C1CC1` [Example 24, 2-{2-[(4aR,5R)-4a-Cyclopropyl-5-hydroxy-1-(pyridin-3-yl)-1,4,4a,5,6,7-hexahydrocyclopenta[f]indazol-5-yl]ethyl}benzenesulfonamide] are 35% and 24 nM.
On to `CC[C@]12Cc3cnn(-c4ccc(F)cc4)c3C=C1CC[C@@]2(O)CCc1ccccc1C(O)C(N)=O` (stereo partly drawn) [Example 25, 2-(2-{2-[(4aS,5R)-4a-Ethyl-1-(4-fluorophenyl)-5-hydroxy-1,4,4a,5,6,7-hexahydrocyclopenta[f]indazol-5-yl]ethyl}phenyl)-2-hydroxyacetamide], for which the “Transactivation A549 Cells Grammer Emax (%)” value turned out to be 22% and the EC50 was found to be 195 nM.
On the same counts, the results for `CC[C@]12Cc3cnn(-c4ccccc4)c3C=C1CC[C@@]2(O)CC(O)c1ccccn1` (single isomer, unassigned) [Example 67b] are 10% and 174 nM.
With `CC[C@]12Cc3cnn(-c4ccc(F)cc4)c3C=C1CC[C@@]2(O)CCc1cc(C)ccn1` [Example 33, (4aS,5R)-4a-Ethyl-1-(4-fluorophenyl)-5-[2-(4-methylpyridin-2-yl)ethyl]-1,4,4a,5,6,7-hexahydrocyclopenta[f]indazol-5-ol], the maximal effect (Emax) worked out at 27% and the EC50 is 72 nM.
On the same counts, the results for `CC[C@]12Cc3cnn(-c4ccc(F)cc4)c3C=C1CC[C@@]2(O)CCc1cccc(F)c1CC(N)=O` [Example 60, 2-(2-{2-[(4aS,5R)-4a-Ethyl-1-(4-fluorophenyl)-5-hydroxy-1,4,4a,5,6,7-hexahydrocyclopenta[f]indazol-5-yl]ethyl}-6-fluorophenyl)acetamide] are 39% and 38 nM.
On the same counts, the results for `CC[C@]12Cc3cnn(-c4ccc(F)cc4)c3C=C1CC[C@@]2(O)CCc1cc(F)ccn1` [Example 18, (4aS,5R)-4a-Ethyl-1-(4-fluorophenyl)-5-[2-(4-fluoropyridin-2-yl)ethyl]-1,4,4a,5,6,7-hexahydrocyclopenta[f]indazol-5-ol] are 32% and 52 nM.
In the same order, the values of `O=C(NCCO)c1ccccc1CC[C@]1(O)CCC2=Cc3c(cnn3-c3ccc(F)cc3)C[C@@]21C1CC1` [Example 50, 2-{2-[(4aR,5R)-4a-Cyclopropyl-1-(4-fluorophenyl)-5-hydroxy-1,4,4a,5,6,7-hexahydrocyclopenta[f]indazol-5-yl]ethyl}-N-(2-hydroxyethyl)benzamide] are 57% and 12 nM.
Consider `COc1ccnc(CC[C@]2(O)CCC3=Cc4c(cnn4-c4ccc(F)cc4)C[C@@]32C2CC2)c1C(N)=O` [Example 54, 2-{2-[(4aR,5R)-4a-Cyclopropyl-1-(4-fluorophenyl)-5-hydroxy-1,4,4a,5,6,7-hexahydrocyclopenta[f]indazol-5-yl]ethyl}-4-methoxypyridine-3-carboxamide], for which the maximal effect (Emax) amounted to 23% and the EC50 came out at 35 nM.
On the same counts, the results for `CC[C@]12Cc3cnn(-c4ccc(F)cc4)c3C=C1CC[C@@]2(O)CC1OC(=O)c2ccccc21` (stereo partly drawn) [Example 71, 3-{[(4aS,5R)-4a-Ethyl-1-(4-fluorophenyl)-5-hydroxy-1,4,4a,5,6,7-hexahydrocyclopenta[f]indazol-5-yl]methyl}-2-benzofuran-1(3H)-one] are 30% and 78 nM.
In the same order, the values of `NC(=O)CNC(=O)c1cc(F)cnc1CC[C@]1(O)CCC2=Cc3c(cnn3-c3ccc(F)cc3)C[C@@]21C1CC1` [Example 44, N-(2-Amino-2-oxoethyl)-2-{2-[(4aR,5R)-4a-cyclopropyl-1-(4-fluorophenyl)-5-hydroxy-1,4,4a,5,6,7-hexahydrocyclopenta[f]indazol-5-yl]ethyl}-5-fluoropyridine-3-carboxamide] are 39% and 154 nM.
On the same counts, the results for `CC[C@]12Cc3cnn(-c4ccc(F)cc4)c3C=C1CC[C@@]2(O)CC(O)c1cncc(F)c1` (stereo partly drawn) [Example 73, (4aS,5R)-4a-Ethyl-1-(4-fluorophenyl)-5-[2-(5-fluoropyridin-3-yl)-2-hydroxyethyl]-1,4,4a,5,6,7-hexahydrocyclopenta[f]indazol-5-ol] are 34% and 101 nM.
On to `NC(=O)c1ccccc1CC[C@]1(O)CCC2=Cc3c(cnn3-c3cccc(F)c3)C[C@@]21C1CC1` [Example 7, 2-{2-[(4aR,5R)-4a-Cyclopropyl-1-(3-fluorophenyl)-5-hydroxy-1,4,4a,5,6,7-hexahydrocyclopenta[f]indazol-5-yl]ethyl}benzamide], for which the maximum response (Emax) came to 7% and the EC50 came out at 143 nM.
Take `NC(=O)CNC(=O)c1ccccc1CC[C@]1(O)CCC2=Cc3c(cnn3-c3ccc(F)cc3)C[C@@]21C1CC1` [Example 47, N-(2-Amino-2-oxoethyl)-2-{2-[(4aR,5R)-4a-cyclopropyl-1-(4-fluorophenyl)-5-hydroxy-1,4,4a,5,6,7-hexahydrocyclopenta[f]indazol-5-yl]ethyl}benzamide]: the Emax came to 46% and the EC50 came out at 17 nM.
As for `CC[C@]12Cc3cnn(-c4ccc(F)cc4)c3C=C1CC[C@@]2(O)CCc1ncc(F)cc1C(N)=O` [Example 53, 2-{2-[(4aS,5R)-4a-Ethyl-1-(4-fluorophenyl)-5-hydroxy-1,4,4a,5,6,7-hexahydrocyclopenta[f]indazol-5-yl]ethyl}-5-fluoropyridine-3-carboxamide], the maximal response (Emax) was determined as 49% and the EC50 came to 77 nM.
Consider `NC(=O)c1cc(F)ccc1CC[C@]1(O)CCC2=Cc3c(cnn3-c3ccc(F)cc3)C[C@@]21C1CC1` [Example 39, 2-{2-[(4aR,5R)-4a-Cyclopropyl-1-(4-fluorophenyl)-5-hydroxy-1,4,4a,5,6,7-hexahydrocyclopenta[f]indazol-5-yl]ethyl}-5-fluorobenzamide], for which the maximal effect (Emax) worked out at 14% and the EC50 turned out to be 116 nM.
Take `CC[C@]12Cc3cnn(-c4ccccc4)c3C=C1CC[C@@]2(O)CCc1cccc(F)c1C#N` [Example 15, 2-{2-[(4aS,5R)-4a-Ethyl-5-hydroxy-1-phenyl-1,4,4a,5,6,7-hexahydrocyclopenta[f]indazol-5-yl]ethyl}-6-fluorobenzonitrile]: the maximal effect (Emax) came out at 29% and the EC50 is 62 nM.
